# According to patent publication US20060046999A1, “Monocyclic aroylpyridinones as antiinflammatory agents” (priority 2002, published 2006):
# Target: p38 map kinase (Homo sapiens, UniProt Q16539)
# Assay: p38 map kinase SPA [33P] assay
# Assay type: biochemical
# Conditions: 10 μM ATP, 2.5 μM biotinylated MBP substrate, 90 min at 30° C.
# Excerpt: The assay makes use of the serine/threonine protein kinase SPA [^33P]-assay kit from Amersham Pharmacia Biotech. The assay is a homogeneous technique using SPA technology for the quantification of serine threonine kinase activity.
# It is based on the p38 map kinase catalysed transfer of the γ-phosphate group of the [γ-^33P]-ATP to the substrate, biotinylated myelin basic protein (MBP). The resulting [^33P]-labelled biotinylated product is trapped on a PVT SPA bead containing scintillant which has been surface coated with streptavidin.
# The beads are allowed to settle to eliminate high background, and therefore only ^33P_labelled product attached to the SPA bead is detected.
# The assay is carried out in the presence and absence of test compounds to determine their effect on p38 map kinase activity.
# A Test Protocol is as Follows:
# • 1. SPA assay kit (Amersham). Components: • Assay buffer (store frozen) • Stop solution (store frozen) • Streptavidin coated SPA beads—reconstitute with 5 ml of PBS (50 mg/ml) (store in fridge) • 2. p38 map kinase enzyme (500 μg/ml)—aliquoted in 1.5 ml • dilute 1:10 to 50 μg/ml • 1 plate: 110 μl (stock 500 μg/ml)+990 μl PBS. • 3. Assay reagent: • for 1 plate: 504 μl assay buffer [500 mM MOPS pH 7.2, 10 μM ATP, 50 mM MgCl2, 25 μM biotinylated myelin basic protein (MBP)] • 2513.4 μl water • 1.1 μl [^33P]-ATP (10 μCi/μl) (on activity date/adjust for activity date) • 4.534 μl X10-2M ATP in water • 4. Stop solution: • for 1 plate: 265.92 μl streptavidin coated beads (50 mg/ml) • 1651.68 μl stop buffer (500 μM ATP, 50 mM EDTA, 1% Triton X-100) • 7084.32 μl PBS. • 1. Add 10 μl compound dilutions (5× final conc.) to test wells • 2. Add 10 μl 12.5% DMSO to control/blank wells • 3. Add 10 μl enzyme (50 μg/ml)—final conc. 500 ng/well • 4. Add 10 μl PBS to blank wells • 5. Add 30 μl of assay reagent to each well (final conc. 10 μM ATP, 2.5 μM substrate) • 6. Mix well on plate shaker • 7. Incubate 90 min (30° C.) • 8. Add 75 μl of stop solution to each well (final conc. 55 μM ATP) • 9. Spin plate: 3 min/1600 rpm/20° C. (alternatively leave to settle overnight) • 10. Read in Microbeta, Protocol SPA paralux 3.
# Sequence of p38 map kinase (Q16539 whole entry): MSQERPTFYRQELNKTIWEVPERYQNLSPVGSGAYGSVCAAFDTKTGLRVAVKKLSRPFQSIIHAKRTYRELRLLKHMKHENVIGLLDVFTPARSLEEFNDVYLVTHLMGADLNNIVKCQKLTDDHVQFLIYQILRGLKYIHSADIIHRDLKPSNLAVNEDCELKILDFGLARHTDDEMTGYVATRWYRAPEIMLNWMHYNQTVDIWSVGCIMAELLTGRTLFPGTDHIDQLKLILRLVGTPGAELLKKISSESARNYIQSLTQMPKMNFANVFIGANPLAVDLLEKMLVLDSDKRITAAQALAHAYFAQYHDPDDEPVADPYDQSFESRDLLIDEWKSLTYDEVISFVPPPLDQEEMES
row,Compound,IC50
1,"O=C(c1ccccc1)c1ccc(=O)n(Cc2ccccc2)c1NCc1ccccc1 [Example 2, 5-Benzoyl-1-benzyl-6-(benzylamino)-2(1H)-pyridinone]",325 nM
2,"COc1ccc(-n2c(N)c(C(=O)c3ccccc3)ccc2=O)cc1 [Example 4, 6-Amino-5-benzoyl-1-(4-methoxyphenyl)-2(1H)-pyridinone]",299 nM
3,"O=C(c1ccccc1)c1ccc(=O)[nH]c1NC1CCCCC1 [Example 5, 5-Benzoyl-6-(cyclohexylamino)-2(1H)-pyridinone]",1290 nM
4,"Nc1c(C(=O)c2ccccc2)ccc(=O)n1-c1ccccc1 [Example 6, 6-Amino-5-benzoyl-1-phenyl-2(1H)-pyridinone]",202 nM
5,"Cc1ccc(-n2c(N)c(C(=O)c3ccccc3)ccc2=O)cc1 [Example 9, 6-amino-5-benzoyl-1-(4-methylphenyl)-2(1H)-pyridinone]",209 nM
6,"CC(C)C(Nc1c(C(=O)c2ccccc2)ccc(=O)n1C)C(C)C [Example 14, 5-Benzoyl-6-[(1-isopropyl-2-methylpropyl)amino]-1-methyl-2(1H)-pyridinone]",1880 nM
7,"O=C(c1ccccc1)c1ccc(=O)[nH]c1NCC1CCCCC1 [Example 15, 5-Benzoyl-6-[(cyclohexylmethyl)amino]-2(1H)-pyridinone]",4050 nM
8,"COc1ccc(-n2c(N)c(C(=O)c3ccc(F)cc3)ccc2=O)c(OC)c1 [Example 20, 6-Amino-1-(2,4-dimethoxyphenyl)-5-(4-fluorobenzoyl)-2(1H)-pyridinone]",127 nM
